pIC50: −log10 of the molar value. “Also recorded” adds a separate entry of the source. Like-named read-outs stand apart in the source and are kept apart here.
Columns and labels:
JARID1B = molecular target: T1, JARID1B (Homo sapiens, UniProt Q9UGL1); assay: FLAG-JARID1B histone demethylase assay with AlphaScreen detection (HTS and dose response); format: biochemical;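 also: FLAG-tagged JARID1B at 4 nM acting on a biotinylated H3K4me3 peptide, demethylation read by AlphaScreen luminescence, with hits checked against bio-H3K4me2 without enzyme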
T1 construct: The FLAG tagged full length JARID1B enzyme was expressed in Sf21 insect cells using FLAG-JARID1B baculoviruses; FLAG (N); made in house; host or cells: Sf21 insect cells (baculovirus)

JARID1C = molecular target: T2, JARID1C (Homo sapiens, UniProt P41229); assay: FLAG-JARID1C histone demethylase assay with AlphaScreen detection; format: biochemical
T2 construct: FLAG (N); made in house; host or cells: Sf21 insect cells (baculovirus)
Description: (§1) Histone demethylase assays were performed in 384 well white plates (Corning 3574). Demethylase buffer conditions for FLAG-JARID1B were as follows: 10 μM α-KG, 100 μM ascorbate, 50 μM (NH4)2Fe(SO4)2, 50 mM Hepes (pH 7.5), 0.01% (v/v) Tween 20, and 0.1% (w/v) bovine serum albumin. The demethylase reactions included 64 nM bio-H3K4me3 peptide alone or in the presence of 4 nM FLAG-JARID1B enzyme in a 10 μl reaction at 25° C. for 30 minutes. As a positive control, 64 nM bio-H3K4me2 peptide was assayed in the absence of enzyme. Assay conditions for FLAG-JARID1C is the same as for FLAG-JARID1B except that 20 nM enzyme was used. For FLAG-JARID1A, the demethylase buffer was similar to FLAG-JARID1B, except that 125 μM α-KG and 13 nM FLAG-JARID1A enzyme were used. The His-FLAG-UTX and FLAG-JMJD3 demethylase assays also employed the same buffer conditions as for FLAG-JARID1B, with 64 nM bio-H3K27me3 peptide assayed with or without 25 nM His-FLAG-UTX enzyme or 50 nM FLAG-JMJD3 (BPS Bioscience, 50115), and 64 nM bio-H3K27me2 peptide as a positive control. JARID1A, JARID1C, UTX, and JMJD3 histone demethylase assays proceeded at 37° C. for 1 hour.
(§2) The AlphaScreen General IgG (Protein A) detection kit was obtained from PerkinElmer. Demethylated H3K4 products were detected using AlphaScreen antibody/bead mix containing 7.5 mM ethylenediaminetetraacetic acid (EDTA) and 0.15 μg/ml anti-H3K4me1 antibody in a final volume of 20 μl. For detection of demethylated H3K27 products, the AlphaScreen antibody/bead mix containing 7.5 mM EDTA and 0.15 μg/ml anti-H3K27me2 antibody in a final volume of 20 μl. The luminescence signal was measured using the Envision (PerkinElmer) or Pherastar (BMG Labtech) Platereaders.

UTX = molecular target: T3, UTX (Homo sapiens, UniProt O15550); assay: His-FLAG-UTX H3K27me3 demethylase assay with AlphaScreen detection; format: biochemical; conditions: compound 10 μM, 64 nM bio-H3K27me3 peptide
T3 construct: His (N); FLAG (N); made in house; host or cells: Sf21 insect cells (baculovirus)
Description: as §1, with “The His-FLAG-UTX and FLAG-JMJD3 demethylase assays also employed the same buffer conditions as for FLAG-JARID1B, with 64 nM bio-H3K27me3 peptide assayed with or without 25 nM His-FLAG-UTX enzyme or 50 nM FLAG-JMJD3 (BPS Bioscience, 50115), and 64 nM bio-H3K27me2 peptide as a positive control. JARID1A, JARID1C, UTX, and JMJD3 histone demethylase assays proceeded at 37° C. for 1 hour.” left out
as §2, with “For detection of demethylated H3K27 products, the AlphaScreen antibody/bead mix containing 7.5 mM EDTA and 0.15 μg/ml anti-H3K27me2 antibody in a final volume of 20 μl.” left out

JMJD3 = molecular target: T4, JMJD3 (Homo sapiens, UniProt O15054); assay: FLAG-JMJD3 H3K27me3 demethylase assay with AlphaScreen detection; format: biochemical; conditions: compound 10 μM, 64 nM bio-H3K27me3 peptide
T4 construct: FLAG (N); purchased BPS Bioscience 50115
Description: as §1, with “The His-FLAG-UTX and FLAG-JMJD3 demethylase assays also employed the same buffer conditions as for FLAG-JARID1B, with 64 nM bio-H3K27me3 peptide assayed with or without 25 nM His-FLAG-UTX enzyme or 50 nM FLAG-JMJD3 (BPS Bioscience, 50115), and 64 nM bio-H3K27me2 peptide as a positive control. JARID1A, JARID1C, UTX, and JMJD3 histone demethylase assays proceeded at 37° C. for 1 hour.” left out
as §2, with “For detection of demethylated H3K27 products, the AlphaScreen antibody/bead mix containing 7.5 mM EDTA and 0.15 μg/ml anti-H3K27me2 antibody in a final volume of 20 μl.” left out

MCF7 cells [1] = assay: Histone extraction and western blot of H3K4 methylation; format: cell-based, human; conditions: 10 μM, 72 hours, histone extracts
Description: MCF7 cells treated with PBIT (10 μM) or DMSO (0.1%) for 72 hours were harvested and lysed with PBS containing 0.5% Triton X-100. Nuclei were spun down by centrifugation at 6,500×g for 10 minutes, and the pellets were re-suspended in 0.2 N HCl. The histones were extracted overnight, and cellular debris was removed by centrifugation. The samples were loaded onto 16% SDS-PAGE gels and probed with antibodies against H3K4me3, H3K4me2, H3K4me1 and H3.
To determine whether PBIT affects H3K4 methylation globally in vivo, H3K4 methylation levels were analyzed in histone extracts prepared from MCF7 cells after exposure to PBIT.

MCF10A cells = assay: WST-1 cell proliferation assay; format: cell-based, human; conditions: 10 μM, 72 hrs
Description: (§3) The colorimetric assay (WST-1 reagent) from Roche (11644807001) was performed in 96 well white clear bottom plates (Costar, 3610). 1,000 cells were seeded per well (in quadruplicate) overnight, and PBIT was added to the cells to the indicated concentration for 72 hrs. 0.01% DMSO was included as the control. The WST-1 reagent was added (5 μl per well) for 4 hrs, and OD 440 nm absorbance (which reflects the number of viable cells) was measured with the BioTek Synergy Mx Platereader.

MCF7 cells [2] = assay: WST-1 cell proliferation assay; format: cell-based, human; conditions: 10 μM, 72 hrs
Description: as §3

UACC-812 cells = assay: WST-1 cell proliferation assay; format: cell-based, human; conditions: 10 μM, 72 hrs
Description: as §3

[3] = test system: SKBR3-S cells (trastuzumab sensitive); assay: WST-1 cell proliferation assay; format: cell-based; conditions: 30 μM
Description: as §3

[4] = test system: 1445 mouse melanoma cells; assay: WST-1 cell proliferation assay; format: cell-based; conditions: 0, 10 and 30 μM
Description: as §3
(§4) A panel of mouse and human melanoma cells was treated with 0, 10 and 30 μM PBIT and their proliferation rates were assessed using WST-1 assays.

YUAME melanoma cells = assay: WST-1 cell proliferation assay; format: cell-based, human; conditions: 0, 10 and 30 μM
Description: as §3, §4

YULAC melanoma cells = assay: WST-1 cell proliferation assay; format: cell-based, human; conditions: 0, 10 and 30 μM
Description: as §3, §4

YURIF melanoma cells = assay: WST-1 cell proliferation assay; format: cell-based, human; conditions: 0, 10 and 30 μM
Description: as §3, §4

[5] = compound 10 μM, 64 nM bio-H3K4me3 peptide

T1 sequence (Q9UGL1 whole entry): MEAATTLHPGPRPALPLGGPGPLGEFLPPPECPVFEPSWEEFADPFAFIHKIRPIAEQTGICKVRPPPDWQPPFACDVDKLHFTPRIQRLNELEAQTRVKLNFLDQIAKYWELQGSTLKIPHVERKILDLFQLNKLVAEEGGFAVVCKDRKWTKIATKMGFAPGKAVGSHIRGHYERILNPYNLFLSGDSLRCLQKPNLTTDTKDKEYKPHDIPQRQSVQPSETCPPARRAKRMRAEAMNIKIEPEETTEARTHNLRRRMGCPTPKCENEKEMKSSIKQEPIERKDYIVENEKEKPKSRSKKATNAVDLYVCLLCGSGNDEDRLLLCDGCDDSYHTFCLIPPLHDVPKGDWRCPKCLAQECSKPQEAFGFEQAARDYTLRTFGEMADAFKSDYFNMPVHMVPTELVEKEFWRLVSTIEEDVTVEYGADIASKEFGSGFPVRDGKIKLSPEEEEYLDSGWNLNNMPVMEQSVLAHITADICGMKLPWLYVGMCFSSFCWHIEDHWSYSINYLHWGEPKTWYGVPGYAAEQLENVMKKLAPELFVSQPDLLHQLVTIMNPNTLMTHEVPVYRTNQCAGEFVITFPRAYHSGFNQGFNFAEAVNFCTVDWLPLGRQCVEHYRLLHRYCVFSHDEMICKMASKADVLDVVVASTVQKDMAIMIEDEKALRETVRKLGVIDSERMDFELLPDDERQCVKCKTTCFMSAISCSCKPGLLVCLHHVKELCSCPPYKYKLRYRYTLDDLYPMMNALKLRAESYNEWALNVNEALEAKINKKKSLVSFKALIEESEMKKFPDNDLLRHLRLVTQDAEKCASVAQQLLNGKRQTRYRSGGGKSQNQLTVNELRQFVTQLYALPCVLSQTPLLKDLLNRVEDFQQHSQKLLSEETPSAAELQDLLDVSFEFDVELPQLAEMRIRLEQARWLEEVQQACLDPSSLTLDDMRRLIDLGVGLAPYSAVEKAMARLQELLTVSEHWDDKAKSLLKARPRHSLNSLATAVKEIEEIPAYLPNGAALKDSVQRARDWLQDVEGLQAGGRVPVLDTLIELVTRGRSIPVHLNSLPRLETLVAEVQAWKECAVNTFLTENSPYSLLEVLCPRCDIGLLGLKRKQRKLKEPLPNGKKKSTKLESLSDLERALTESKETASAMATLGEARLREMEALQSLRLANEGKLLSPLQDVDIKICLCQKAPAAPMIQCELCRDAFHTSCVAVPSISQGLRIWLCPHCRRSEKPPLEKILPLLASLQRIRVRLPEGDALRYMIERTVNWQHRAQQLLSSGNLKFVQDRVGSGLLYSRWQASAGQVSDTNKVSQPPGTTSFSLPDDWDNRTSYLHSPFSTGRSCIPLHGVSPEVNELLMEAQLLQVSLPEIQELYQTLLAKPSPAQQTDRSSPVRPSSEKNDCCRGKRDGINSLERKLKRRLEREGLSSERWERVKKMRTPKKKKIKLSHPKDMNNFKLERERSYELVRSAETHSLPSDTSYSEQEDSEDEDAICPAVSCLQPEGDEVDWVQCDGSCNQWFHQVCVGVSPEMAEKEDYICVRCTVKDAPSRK
T2 sequence (P41229 whole entry): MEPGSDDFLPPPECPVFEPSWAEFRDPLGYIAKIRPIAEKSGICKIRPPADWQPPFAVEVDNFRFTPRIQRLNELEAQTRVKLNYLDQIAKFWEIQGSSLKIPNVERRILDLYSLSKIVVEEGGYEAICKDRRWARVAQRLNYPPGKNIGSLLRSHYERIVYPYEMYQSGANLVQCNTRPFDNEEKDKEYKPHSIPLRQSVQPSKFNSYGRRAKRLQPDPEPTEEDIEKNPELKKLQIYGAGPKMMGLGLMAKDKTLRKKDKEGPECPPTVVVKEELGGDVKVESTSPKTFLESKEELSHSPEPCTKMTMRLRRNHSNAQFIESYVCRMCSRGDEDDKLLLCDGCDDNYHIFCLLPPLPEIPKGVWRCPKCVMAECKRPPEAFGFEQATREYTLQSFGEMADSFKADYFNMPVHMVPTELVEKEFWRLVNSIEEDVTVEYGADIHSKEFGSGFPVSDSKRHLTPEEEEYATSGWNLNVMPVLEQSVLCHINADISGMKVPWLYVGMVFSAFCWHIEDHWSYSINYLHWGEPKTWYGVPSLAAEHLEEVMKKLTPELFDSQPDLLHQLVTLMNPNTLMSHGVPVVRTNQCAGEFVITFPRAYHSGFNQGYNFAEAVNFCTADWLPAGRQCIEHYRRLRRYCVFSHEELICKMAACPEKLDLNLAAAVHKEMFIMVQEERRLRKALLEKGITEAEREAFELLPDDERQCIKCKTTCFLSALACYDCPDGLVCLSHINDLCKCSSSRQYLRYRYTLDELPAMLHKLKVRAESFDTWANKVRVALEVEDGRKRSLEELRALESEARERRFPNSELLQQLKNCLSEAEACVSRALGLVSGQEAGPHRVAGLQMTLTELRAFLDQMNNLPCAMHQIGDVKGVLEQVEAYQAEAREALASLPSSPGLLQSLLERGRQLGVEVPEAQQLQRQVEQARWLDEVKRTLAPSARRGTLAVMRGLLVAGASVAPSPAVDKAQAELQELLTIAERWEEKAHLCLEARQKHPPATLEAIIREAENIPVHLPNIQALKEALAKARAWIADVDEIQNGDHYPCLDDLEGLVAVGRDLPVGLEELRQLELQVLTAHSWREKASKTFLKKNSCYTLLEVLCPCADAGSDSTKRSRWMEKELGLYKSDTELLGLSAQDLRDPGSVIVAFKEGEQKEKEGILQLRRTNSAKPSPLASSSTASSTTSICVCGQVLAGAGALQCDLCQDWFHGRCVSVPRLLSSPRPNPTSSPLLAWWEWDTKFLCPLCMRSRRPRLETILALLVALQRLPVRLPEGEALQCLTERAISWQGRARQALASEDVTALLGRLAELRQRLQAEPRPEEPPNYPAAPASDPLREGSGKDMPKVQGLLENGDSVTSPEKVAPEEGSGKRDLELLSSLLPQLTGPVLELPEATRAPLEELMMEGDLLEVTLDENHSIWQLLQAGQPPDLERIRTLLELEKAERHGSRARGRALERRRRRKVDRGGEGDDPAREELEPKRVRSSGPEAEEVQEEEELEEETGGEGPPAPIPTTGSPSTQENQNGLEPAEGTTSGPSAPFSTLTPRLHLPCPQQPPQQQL
T4 sequence (O15054 1-1682 isoform O15054-1): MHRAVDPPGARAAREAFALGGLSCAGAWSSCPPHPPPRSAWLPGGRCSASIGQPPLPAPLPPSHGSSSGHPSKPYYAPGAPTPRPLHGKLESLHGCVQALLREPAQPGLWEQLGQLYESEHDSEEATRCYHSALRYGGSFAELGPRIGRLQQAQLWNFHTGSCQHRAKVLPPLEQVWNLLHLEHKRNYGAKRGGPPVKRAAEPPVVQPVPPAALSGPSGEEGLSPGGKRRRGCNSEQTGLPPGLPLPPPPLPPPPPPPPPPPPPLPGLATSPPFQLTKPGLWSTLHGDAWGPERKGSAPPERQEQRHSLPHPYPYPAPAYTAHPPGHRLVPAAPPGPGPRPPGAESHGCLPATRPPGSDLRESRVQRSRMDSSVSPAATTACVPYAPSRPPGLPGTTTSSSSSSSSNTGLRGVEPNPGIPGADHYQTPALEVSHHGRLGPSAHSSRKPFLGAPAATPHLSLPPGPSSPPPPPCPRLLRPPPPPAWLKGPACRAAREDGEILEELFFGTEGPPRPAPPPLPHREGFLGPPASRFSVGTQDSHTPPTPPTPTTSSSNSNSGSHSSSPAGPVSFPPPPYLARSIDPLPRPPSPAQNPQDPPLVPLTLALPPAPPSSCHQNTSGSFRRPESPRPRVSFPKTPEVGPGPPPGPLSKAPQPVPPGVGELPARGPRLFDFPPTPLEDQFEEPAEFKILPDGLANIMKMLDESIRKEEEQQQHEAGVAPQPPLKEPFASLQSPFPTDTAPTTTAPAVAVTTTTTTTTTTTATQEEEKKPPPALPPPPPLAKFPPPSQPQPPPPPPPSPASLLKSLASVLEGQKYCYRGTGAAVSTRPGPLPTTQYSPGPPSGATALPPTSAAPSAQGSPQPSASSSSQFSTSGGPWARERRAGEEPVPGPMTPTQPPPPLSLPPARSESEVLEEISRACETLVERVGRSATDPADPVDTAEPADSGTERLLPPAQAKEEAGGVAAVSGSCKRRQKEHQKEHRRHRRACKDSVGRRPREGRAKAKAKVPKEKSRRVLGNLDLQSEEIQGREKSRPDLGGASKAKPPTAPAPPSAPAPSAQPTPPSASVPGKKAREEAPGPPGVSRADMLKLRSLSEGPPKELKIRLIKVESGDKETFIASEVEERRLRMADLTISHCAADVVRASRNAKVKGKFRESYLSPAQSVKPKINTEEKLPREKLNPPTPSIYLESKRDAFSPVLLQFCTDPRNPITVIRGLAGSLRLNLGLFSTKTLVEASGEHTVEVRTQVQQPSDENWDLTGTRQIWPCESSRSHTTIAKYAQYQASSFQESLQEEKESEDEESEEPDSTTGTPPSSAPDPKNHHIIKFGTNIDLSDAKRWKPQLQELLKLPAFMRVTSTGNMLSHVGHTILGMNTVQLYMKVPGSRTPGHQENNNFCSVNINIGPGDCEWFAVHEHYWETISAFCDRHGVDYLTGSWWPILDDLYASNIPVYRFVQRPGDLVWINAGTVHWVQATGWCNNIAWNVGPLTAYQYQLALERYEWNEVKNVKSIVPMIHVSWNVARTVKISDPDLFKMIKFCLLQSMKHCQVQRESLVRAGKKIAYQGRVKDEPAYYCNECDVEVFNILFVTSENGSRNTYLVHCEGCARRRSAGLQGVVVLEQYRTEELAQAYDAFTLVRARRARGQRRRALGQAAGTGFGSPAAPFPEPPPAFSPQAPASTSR

Cc1ccc(-n2sc3ccccc3c2=O)cc1 [PBIT, 2-4(4-methylphenyl)-1,2-benzisothiazol-3(2H)-one]
inhibition of JARID1B (maximum) (JARID1B): up to 95%
pIC50 (JARID1B; Fe (II) concentration not stated, read-out: IC50 against JARID1B): ~5.52
JARID1B demethylase activity (JARID1B; [5]): inhibited
IC50 (JARID1B; dose response at 15 μM (low) Fe (II), read-out: IC50 (μM) low Fe (II)): 3.17 µM
IC50 (JARID1B; dose response at 50 μM (high) Fe (II), read-out: IC50 (μM) high Fe (II)): 2.78 µM
JARID1C demethylase activity (JARID1C; [5]): inhibited
pIC50 (JARID1C; dose response, read-out: IC50 against JARID1C): 5.31
UTX demethylase activity (UTX): minimal effect; also recorded: did not inhibit
JMJD3 demethylase activity (JMJD3): minimal effect; also recorded: did not inhibit
H3K4me1 levels (MCF7 cells [1]): did not change significantly
H3K4me2 levels (MCF7 cells [1]): did not change significantly
H3K4me3 levels (MCF7 cells [1]): increased; also recorded: dramatic increase
cell proliferation (WST-1) (MCF10A cells): minimal toxicity
cell proliferation (WST-1) (MCF7 cells [2]): did not inhibit growth; also recorded: minimal toxicity
cell proliferation (WST-1) (UACC-812 cells): killed most
cell proliferation (WST-1) [3]: small inhibitory effects
sensitivity of proliferation to treatment (WST-1) [4]: most sensitive
sensitivity of proliferation to treatment (WST-1) (YUAME melanoma cells): sensitive
sensitivity of proliferation to treatment (WST-1) (YULAC melanoma cells): sensitive
sensitivity of proliferation to treatment (WST-1) (YURIF melanoma cells): least sensitive

Reference: US20150272939A1, “Identification of Small Molecule Inhibitors of Jumonji AT-Rich Interactive Domain 1A (JARID1A) and 1B (JARID1B) Histone Demethylase” (Yale University, priority 2012, published 2015)
